Laboratory results reported in patent publication US10766940B2, “Brain penetrant amylin receptor based peptides for Alzheimer's disease” (The Governors of the University of Alberta, priority 2016, dated 2020).
Residues, ends and D or L forms follow the SMILES beside them. No end group written: not given here.

Legend:
[1] = target: T1, AMY3 receptor (CTR+RAMP3), HEK293-AMY3 cells (Homo sapiens, UniProt O60896+P30988); assay: Peptide array-cell binding assay, AMY3 cells; conditions: membrane-bound peptides, GFP cells
T1 construct: expressed in transfected cells; AMY3-293 / AMY3-HEK)
T1 sequence (P30988 25-474): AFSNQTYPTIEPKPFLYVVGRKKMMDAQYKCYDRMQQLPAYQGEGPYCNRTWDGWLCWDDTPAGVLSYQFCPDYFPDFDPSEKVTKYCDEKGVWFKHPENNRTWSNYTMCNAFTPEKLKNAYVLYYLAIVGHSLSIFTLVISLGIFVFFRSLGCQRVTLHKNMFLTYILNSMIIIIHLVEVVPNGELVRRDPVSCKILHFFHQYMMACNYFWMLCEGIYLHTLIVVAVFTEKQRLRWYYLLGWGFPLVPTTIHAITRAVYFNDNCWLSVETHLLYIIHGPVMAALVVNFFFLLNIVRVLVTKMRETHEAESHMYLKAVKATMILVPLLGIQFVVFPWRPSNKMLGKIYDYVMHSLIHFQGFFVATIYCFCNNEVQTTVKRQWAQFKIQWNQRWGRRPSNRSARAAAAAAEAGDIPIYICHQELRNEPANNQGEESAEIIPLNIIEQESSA
T1 sequence (O60896 24-148 partner): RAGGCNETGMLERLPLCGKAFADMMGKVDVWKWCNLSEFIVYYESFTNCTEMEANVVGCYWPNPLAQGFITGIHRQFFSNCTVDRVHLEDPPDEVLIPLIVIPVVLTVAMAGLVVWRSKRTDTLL
Text: A peptide array library derived from AC253 peptide sequence comprising 14 short peptide sequences namely, R1-R14 (R-R13 are 12 amino acids, peptide R14 is 14 aa), was synthesized in duplicate on a cellulose membrane using SPOT synthesis. Briefly, peptide fragments were designed by selecting the first 12 amino acids from N-terminus, skipping one amino acid and moving towards C-terminus to yield 13 sequences R1-R13, and peptide R14 is the first 14 amino acid of the N-terminus region of AC253. The peptide array was synthesized on a PEG-500-derivatized cellulose membrane with a free amino terminal group using a semiautomatic robot AutoSpot ASP222 (Intavis AG, Germany). Synthesis of peptides on PEG500 derivatised cellulose membrane was started by attaching first β-alanine residue (linker) to the cellulose membrane and subsequently peptides synthesized from the C-terminus. […]
To screen the peptide library for amylin receptor binding affinity, transfected GFP-positive Human Embryonic Kidney 293 cells that express AMY3 receptor (CTR+RAMP3) was used. […] The peptide array membrane was incubated with 20 ml GFP-cells (75,000/ml) in serum free media for 3 hr, and after washing, the net fluorescence intensity of each peptide spot due to bound cells was quantified using a Kodak imager. […] Duplicate peptide spots, two scans, and two different experiments were used to calculate net fluorescence intensity. […]

[2] = system: human neuroblastoma, SK-N-SH cells; assay: Aβ1-42 cytotoxicity (MTT) in SK-N-SH cells; type: cell-based; conditions: Aβ1-42 20 μM
Experimental: f) To investigate the antagonistic activity of peptide fragments against Aβ cytotoxicity in vitro, (human fetal neurons) HFNs, human neuroblastoma, SK-N-SH cells and N2a mouse neuroblastoma cells were used. Cells were seeded to 5000 cells/well in a 96-well plate in MEM-10% FBS and DMEM/OptiMEM-5% FBS for overnight. Cells in culture media were preincubated for 8 h with or without AC253 or fragments R5, R14, R11, and followed by treatment with Aβ1-42 for 24 h. At the end of treatment, 20 μl of 5 mg/ml methylthiazolyldiphenyl-tetrazolium bromide (MTT) was added to each well, and incubated at 37° C. for 3 h. Medium was removed, 100 μl of MTT solvent (isopropanol with 4 mM HCl) added to each well, and the plates were incubated for 30 min at room temperature on a rotating shaker. Plates were analyzed on a microplate reader at a 562-nm wavelength.

AMY1 = target: T2, AMY1 (Homo sapiens, UniProt O60894+P30988); assay: Flow cytometry cell uptake, AMY1 cells; type: cell-based; conditions: 10 μM, 37° C., 60 min
T2 construct: expressed in transfected cells
T2 sequence (O60894 27-148 partner, one chain of several): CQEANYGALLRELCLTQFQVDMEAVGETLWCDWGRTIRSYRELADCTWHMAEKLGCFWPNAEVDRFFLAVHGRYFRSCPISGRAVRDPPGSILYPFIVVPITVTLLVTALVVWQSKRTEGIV

Compound | binding to HEK293-AMY3 cells on peptide array (fluorescence) [1] | block of Aβ1-42 triggered cell death, SK-N-SH (MTT) [2] | flow cytometry binding to AMY1 cells (AMY1)
LGRLSQELHRLQTY (LGRLSQELHRLQTY-NH2) [R14] | most significant binding | block the effect of Aβ1-42 | selective and significant specific binding
CC(C)C[C@H](NC(=O)[C@H](CCC(=O)O)NC(=O)[C@H](CCC(N)=O)NC(=O)[C@@H](N)CO)C(=O)N[C@@H](Cc1c[nH]cn1)C(=O)N[C@@H](CCCNC(=N)N)C(=O)N[C@@H](CC(C)C)C(=O)N[C@@H](CCC(N)=O)C(=O)N[C@H](C(=O)N[C@@H](Cc1ccc(O)cc1)C(=O)N1CCC[C@H]1C(=O)N[C@@H](CCCNC(=N)N)C(N)=O)[C@@H](C)O [R5] (H-SQELHRLQTYPR-NH2; N-terminus assumed) | most significant binding | block the effect of Aβ1-42 | selective and significant specific binding
